Paper PMC6199744, “Development of Chemical Proteomics for the Folateome and Analysis of the Kinetoplastid Folateome” (ACS Infectious Diseases, 2018)
Where two headings read alike, the source gives them in different places.

Tests used:
Type in all cases: binding
[1] = target: T1, HeLa cell extract proteins (Homo sapiens, UniProt P49915)
T1 construct: endogenous in cells; host or cells: HeLa cell extract

[2] = target: T2, HeLa cell extract proteins (Homo sapiens, UniProt P68104)
T2 construct: endogenous in cells; host or cells: HeLa cell extract
T2 sequence (P68104 1-462): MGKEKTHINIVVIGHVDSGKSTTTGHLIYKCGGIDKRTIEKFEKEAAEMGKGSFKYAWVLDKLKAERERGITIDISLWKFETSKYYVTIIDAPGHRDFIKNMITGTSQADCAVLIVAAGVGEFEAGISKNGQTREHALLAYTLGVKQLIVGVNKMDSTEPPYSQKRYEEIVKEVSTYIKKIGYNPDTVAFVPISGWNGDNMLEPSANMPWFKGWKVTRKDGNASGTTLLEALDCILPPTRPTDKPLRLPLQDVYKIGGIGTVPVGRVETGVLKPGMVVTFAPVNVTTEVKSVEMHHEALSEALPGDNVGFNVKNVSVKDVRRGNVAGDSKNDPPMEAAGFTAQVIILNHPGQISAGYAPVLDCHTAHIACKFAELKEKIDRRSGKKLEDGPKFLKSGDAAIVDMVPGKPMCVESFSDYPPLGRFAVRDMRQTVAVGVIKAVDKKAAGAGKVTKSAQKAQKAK

[3] = target: T3, HeLa cell extract proteins (Homo sapiens, UniProt P21359)
T3 construct: endogenous in cells; host or cells: HeLa cell extract
T3 sequence (P21359 whole entry): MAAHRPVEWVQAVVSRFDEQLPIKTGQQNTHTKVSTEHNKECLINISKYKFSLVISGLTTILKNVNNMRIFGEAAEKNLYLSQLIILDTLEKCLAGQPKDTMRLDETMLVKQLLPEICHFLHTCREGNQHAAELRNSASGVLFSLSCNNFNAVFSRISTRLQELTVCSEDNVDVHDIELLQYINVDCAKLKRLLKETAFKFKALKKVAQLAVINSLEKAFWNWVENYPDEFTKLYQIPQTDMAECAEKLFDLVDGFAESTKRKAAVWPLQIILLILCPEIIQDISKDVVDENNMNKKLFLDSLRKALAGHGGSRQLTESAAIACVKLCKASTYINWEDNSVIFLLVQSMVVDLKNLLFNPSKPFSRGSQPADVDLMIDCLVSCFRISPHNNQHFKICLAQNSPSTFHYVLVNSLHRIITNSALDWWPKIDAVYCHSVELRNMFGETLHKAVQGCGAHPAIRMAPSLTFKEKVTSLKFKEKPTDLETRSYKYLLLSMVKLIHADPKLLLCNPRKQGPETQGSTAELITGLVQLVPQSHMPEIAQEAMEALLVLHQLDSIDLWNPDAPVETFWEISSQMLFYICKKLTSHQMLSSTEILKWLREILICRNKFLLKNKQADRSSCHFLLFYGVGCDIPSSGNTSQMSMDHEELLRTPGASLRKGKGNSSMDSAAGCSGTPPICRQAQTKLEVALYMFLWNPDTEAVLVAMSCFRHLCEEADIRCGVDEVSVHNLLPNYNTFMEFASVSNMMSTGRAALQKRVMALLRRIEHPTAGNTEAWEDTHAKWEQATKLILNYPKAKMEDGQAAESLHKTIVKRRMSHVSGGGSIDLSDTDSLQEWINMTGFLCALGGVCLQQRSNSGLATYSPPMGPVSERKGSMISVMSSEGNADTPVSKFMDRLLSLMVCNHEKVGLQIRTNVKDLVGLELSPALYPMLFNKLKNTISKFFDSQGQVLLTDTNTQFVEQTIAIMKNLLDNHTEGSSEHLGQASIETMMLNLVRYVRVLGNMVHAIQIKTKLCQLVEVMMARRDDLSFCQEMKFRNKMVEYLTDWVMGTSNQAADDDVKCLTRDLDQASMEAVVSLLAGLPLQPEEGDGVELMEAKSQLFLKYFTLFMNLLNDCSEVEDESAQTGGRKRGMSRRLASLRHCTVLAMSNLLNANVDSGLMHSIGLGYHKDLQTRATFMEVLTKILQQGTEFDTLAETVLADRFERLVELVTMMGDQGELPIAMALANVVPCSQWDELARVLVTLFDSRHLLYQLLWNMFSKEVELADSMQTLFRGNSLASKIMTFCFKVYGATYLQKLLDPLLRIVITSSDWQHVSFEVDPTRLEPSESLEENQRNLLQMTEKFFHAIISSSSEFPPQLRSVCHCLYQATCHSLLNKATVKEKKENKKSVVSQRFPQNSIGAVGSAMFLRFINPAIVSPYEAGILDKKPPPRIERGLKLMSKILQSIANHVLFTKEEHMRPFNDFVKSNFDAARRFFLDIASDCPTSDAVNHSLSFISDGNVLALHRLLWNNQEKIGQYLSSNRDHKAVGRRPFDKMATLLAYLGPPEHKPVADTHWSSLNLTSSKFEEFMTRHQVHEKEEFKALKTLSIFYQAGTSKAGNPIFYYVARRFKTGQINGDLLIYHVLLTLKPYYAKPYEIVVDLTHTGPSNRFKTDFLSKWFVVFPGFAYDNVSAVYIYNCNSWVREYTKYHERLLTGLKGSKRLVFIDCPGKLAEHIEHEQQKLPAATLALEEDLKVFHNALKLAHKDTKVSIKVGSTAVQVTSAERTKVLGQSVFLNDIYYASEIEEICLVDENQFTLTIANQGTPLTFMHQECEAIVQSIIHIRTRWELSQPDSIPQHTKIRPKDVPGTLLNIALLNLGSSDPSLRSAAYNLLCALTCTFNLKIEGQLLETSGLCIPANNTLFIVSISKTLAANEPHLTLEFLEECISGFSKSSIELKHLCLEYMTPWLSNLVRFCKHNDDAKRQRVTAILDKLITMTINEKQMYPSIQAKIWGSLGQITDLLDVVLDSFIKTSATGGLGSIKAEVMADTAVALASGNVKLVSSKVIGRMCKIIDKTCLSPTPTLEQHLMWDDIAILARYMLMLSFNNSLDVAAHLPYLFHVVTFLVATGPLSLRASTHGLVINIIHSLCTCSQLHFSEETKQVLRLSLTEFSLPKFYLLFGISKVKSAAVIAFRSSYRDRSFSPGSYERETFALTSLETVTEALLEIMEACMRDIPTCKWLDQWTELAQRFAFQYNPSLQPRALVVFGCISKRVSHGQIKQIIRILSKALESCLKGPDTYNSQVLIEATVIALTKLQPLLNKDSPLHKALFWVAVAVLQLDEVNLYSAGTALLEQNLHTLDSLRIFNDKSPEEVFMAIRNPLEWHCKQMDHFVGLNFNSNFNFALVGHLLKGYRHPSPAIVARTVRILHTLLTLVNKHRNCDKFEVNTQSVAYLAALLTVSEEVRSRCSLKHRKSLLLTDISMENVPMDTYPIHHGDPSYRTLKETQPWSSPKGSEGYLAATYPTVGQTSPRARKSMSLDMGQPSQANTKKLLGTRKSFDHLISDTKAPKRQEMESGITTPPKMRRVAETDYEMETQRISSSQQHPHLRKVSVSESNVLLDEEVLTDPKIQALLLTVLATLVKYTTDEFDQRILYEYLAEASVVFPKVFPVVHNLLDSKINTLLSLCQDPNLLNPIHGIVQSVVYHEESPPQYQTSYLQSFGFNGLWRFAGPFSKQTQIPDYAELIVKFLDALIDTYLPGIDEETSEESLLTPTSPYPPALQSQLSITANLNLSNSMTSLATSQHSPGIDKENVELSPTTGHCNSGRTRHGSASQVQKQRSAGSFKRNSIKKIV

[4] = target: T4, HeLa cell extract proteins (Homo sapiens, UniProt P62191)
T4 construct: endogenous in cells; host or cells: HeLa cell extract
T4 sequence (P62191 whole entry): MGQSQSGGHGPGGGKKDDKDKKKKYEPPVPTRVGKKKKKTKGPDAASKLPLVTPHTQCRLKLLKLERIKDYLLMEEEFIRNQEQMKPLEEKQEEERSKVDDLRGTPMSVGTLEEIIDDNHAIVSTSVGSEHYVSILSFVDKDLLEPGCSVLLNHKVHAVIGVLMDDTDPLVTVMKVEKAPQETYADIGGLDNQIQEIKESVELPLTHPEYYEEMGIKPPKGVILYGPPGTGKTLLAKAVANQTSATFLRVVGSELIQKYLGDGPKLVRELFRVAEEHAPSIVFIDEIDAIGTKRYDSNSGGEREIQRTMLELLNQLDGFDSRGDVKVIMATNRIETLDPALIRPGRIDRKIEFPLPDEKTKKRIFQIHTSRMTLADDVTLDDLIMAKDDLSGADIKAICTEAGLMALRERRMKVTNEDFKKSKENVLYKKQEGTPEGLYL

[5] = target: T5, HeLa cell extract proteins (Homo sapiens, UniProt Q16531)
T5 construct: endogenous in cells; host or cells: HeLa cell extract
T5 sequence (Q16531 whole entry): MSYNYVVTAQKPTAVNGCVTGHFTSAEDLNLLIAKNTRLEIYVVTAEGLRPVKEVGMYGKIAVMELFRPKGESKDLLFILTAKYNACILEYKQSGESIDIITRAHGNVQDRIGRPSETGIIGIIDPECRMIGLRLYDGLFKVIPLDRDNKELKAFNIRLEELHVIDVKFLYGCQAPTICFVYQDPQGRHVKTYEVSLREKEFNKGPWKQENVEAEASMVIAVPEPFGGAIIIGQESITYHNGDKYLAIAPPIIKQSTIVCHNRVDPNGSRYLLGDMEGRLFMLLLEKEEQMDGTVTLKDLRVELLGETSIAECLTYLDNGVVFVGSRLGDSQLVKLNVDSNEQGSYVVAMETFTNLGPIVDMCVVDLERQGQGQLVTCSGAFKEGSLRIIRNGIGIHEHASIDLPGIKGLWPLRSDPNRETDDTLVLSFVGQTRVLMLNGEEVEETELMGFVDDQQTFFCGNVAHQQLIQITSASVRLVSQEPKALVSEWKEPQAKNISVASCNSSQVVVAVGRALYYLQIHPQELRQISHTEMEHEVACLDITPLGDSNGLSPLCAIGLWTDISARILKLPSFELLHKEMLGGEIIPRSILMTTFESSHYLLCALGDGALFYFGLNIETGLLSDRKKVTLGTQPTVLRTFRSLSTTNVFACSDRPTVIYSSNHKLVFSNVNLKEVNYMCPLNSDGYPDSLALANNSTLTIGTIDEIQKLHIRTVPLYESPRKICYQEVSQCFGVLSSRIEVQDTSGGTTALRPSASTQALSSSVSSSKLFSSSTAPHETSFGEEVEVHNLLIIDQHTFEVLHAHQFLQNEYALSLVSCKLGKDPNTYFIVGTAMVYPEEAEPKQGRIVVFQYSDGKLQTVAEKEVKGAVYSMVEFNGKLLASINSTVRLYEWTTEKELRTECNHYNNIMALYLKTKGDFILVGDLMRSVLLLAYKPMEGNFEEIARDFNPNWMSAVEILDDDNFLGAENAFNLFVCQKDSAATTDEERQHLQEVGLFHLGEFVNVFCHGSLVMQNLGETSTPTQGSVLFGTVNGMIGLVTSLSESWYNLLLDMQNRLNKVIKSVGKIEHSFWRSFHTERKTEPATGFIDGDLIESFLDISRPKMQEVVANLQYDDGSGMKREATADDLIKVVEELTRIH

[6] = target: T6, HeLa cell extract proteins (Homo sapiens, UniProt P51149)
T6 construct: endogenous in cells; host or cells: HeLa cell extract
T6 sequence (P51149 whole entry): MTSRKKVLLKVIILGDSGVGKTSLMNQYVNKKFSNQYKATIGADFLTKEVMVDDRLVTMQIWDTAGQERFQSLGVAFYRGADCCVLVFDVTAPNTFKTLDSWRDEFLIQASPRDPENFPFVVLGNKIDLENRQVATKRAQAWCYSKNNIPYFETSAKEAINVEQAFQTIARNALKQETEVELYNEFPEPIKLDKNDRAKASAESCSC

[7] = target: T7, HeLa cell extract proteins (Homo sapiens, UniProt P81605)
T7 construct: endogenous in cells; host or cells: HeLa cell extract
T7 sequence (P81605 20-110): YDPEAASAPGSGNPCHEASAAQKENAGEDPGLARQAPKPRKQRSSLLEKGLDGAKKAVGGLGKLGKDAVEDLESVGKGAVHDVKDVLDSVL

[8] = target: T8, HeLa cell extract proteins (Homo sapiens, UniProt Q9Y5Y0)
T8 construct: endogenous in cells; host or cells: HeLa cell extract
T8 sequence (Q9Y5Y0 1-555): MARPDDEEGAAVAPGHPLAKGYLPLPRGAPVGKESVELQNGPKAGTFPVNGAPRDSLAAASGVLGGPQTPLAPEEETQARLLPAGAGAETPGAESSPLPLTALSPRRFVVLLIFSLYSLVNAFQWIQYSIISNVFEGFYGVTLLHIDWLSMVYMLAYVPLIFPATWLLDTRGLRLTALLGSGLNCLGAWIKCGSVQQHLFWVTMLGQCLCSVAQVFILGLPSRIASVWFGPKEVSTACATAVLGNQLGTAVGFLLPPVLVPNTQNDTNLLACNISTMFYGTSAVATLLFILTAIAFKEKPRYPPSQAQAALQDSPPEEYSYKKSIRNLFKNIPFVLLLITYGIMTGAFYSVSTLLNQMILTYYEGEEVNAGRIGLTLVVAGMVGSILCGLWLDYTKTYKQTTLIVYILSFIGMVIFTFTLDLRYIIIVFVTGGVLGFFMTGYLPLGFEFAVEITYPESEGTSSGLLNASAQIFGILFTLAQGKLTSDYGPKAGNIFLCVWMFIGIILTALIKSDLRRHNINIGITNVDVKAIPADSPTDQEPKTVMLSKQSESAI

[9] = target: T9, HeLa cell extract proteins (Homo sapiens, UniProt P14868)
T9 construct: endogenous in cells; host or cells: HeLa cell extract
T9 sequence (P14868 1-501): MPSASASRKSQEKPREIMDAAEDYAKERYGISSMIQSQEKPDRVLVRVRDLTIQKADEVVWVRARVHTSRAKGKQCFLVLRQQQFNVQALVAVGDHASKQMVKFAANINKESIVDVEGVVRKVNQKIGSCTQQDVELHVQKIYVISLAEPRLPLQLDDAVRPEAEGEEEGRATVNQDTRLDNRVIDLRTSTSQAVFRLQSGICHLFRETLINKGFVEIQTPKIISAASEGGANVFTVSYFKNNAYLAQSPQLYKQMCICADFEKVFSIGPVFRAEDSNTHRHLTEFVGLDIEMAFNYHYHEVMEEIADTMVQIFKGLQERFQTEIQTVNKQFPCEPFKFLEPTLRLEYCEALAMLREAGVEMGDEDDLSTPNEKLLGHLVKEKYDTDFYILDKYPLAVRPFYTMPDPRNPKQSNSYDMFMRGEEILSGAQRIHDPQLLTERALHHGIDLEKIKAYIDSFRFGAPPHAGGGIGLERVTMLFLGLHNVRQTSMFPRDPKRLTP

[10] = target: T10, HeLa cell extract proteins (Homo sapiens, UniProt Q13126)
T10 construct: endogenous in cells; host or cells: HeLa cell extract
T10 sequence (Q13126 1-283): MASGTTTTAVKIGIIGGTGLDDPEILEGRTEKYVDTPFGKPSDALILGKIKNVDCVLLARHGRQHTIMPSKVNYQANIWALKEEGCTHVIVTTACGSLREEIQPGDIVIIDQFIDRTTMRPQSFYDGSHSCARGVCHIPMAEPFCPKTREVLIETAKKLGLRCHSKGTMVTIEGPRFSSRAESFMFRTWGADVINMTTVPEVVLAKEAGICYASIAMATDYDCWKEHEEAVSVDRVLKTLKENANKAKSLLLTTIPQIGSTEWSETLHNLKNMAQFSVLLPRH

[11] = target: T11, HeLa cell extract proteins (Homo sapiens, UniProt Q9NUI1)
T11 construct: endogenous in cells; host or cells: HeLa cell extract
T11 sequence (Q9NUI1 1-292): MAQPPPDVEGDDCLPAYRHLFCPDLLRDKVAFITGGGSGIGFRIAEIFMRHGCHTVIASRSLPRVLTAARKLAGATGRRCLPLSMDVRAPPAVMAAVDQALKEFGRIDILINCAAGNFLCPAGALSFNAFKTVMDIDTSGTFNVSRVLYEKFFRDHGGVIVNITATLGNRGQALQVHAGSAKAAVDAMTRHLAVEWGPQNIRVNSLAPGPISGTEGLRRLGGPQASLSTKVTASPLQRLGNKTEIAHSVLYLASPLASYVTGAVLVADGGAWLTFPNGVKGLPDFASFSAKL

## Nc1nc2c(c(=O)[nH]1)N(C=O)C(CNc1ccc(C(=O)N[C@@H](CCC(=O)O)C(=O)O)cc1)CN2 (some centres unmarked) [LEU, leucovorin]
[1]; HeLa, protein GMPS
  fold changes relative to vehicle control: 0.93
[2]; HeLa, captured protein EEF1A1
  fold changes relative to vehicle control: 1.01
[3]; HeLa, protein NF1
  fold changes relative to vehicle control: 0.96
[4]; HeLa, protein PSMC1
  fold changes relative to vehicle control: 1
[5]; HeLa, protein DDB1
  fold changes relative to vehicle control: 0.95
[6]; protein RAB7A, HeLa
  fold changes relative to vehicle control: 0.99
[7]; protein DCD, HeLa
  fold changes relative to vehicle control: 0.78
[8]; protein FLVCR1, HeLa
  fold changes relative to vehicle control: 0.57
[9]; HeLa, protein DARS
  fold changes relative to vehicle control: 0.94
[10]; HeLa, captured protein MTAP
  fold changes relative to vehicle control: 1.13
[11]; HeLa, protein DECR2
  fold changes relative to vehicle control: 1.02

## Nc1nc2[nH]cc(CCc3ccc(C(=O)N[C@@H](CCC(=O)O)C(=O)O)cc3)c2c(=O)[nH]1 [PTX, pemetrexed]
[1]
  fold changes relative to vehicle control: 0.99
[2]
  fold changes relative to vehicle control: 0.93
[3]
  fold changes relative to vehicle control: 1.04
[4]
  fold changes relative to vehicle control: 0.92
[5]
  fold changes relative to vehicle control: 0.9
[6]
  fold changes relative to vehicle control: 1.12
[7]
  fold changes relative to vehicle control: 1.53
[8]
  fold changes relative to vehicle control: 0.59
[9]
  fold changes relative to vehicle control: 0.98
[10]
  fold changes relative to vehicle control: 0.98
[11]
  fold changes relative to vehicle control: 0.89

## CCCCCCOc1ccc(Cc2cnc(N)nc2N)cc1 [compound 1]
[1]; protein GMPS, HeLa
  fold changes relative to vehicle control: 1.37
[2]; protein EEF1A1, HeLa
  fold changes relative to vehicle control: 1.17
[3]; protein NF1, HeLa
  fold changes relative to vehicle control: 0.84
[4]; protein PSMC1, HeLa
  fold changes relative to vehicle control: 0.98
[5]; HeLa, protein DDB1
  fold changes relative to vehicle control: 0.9
[6]; protein RAB7A, HeLa
  fold changes relative to vehicle control: 1.21
[7]; protein DCD, HeLa
  fold changes relative to vehicle control: 9.15
[8]; HeLa, protein FLVCR1
  fold changes relative to vehicle control: 0.78
[9]; protein DARS, HeLa
  fold changes relative to vehicle control: 1.02
[10]; protein MTAP, HeLa
  fold changes relative to vehicle control: 0.9
[11]; HeLa, protein DECR2
  fold changes relative to vehicle control: 1

## CCCCCCOc1cccc(Cc2cnc(N)nc2N)c1 [compound 2]
[1]; protein GMPS, HeLa
  fold changes relative to vehicle control: 1.94
[2]; protein EEF1A1, HeLa
  fold changes relative to vehicle control: 1.47
[3]; protein NF1, HeLa
  fold changes relative to vehicle control: 1.15
[4]; protein PSMC1, HeLa
  fold changes relative to vehicle control: 1.42
[5]; HeLa, protein DDB1
  fold changes relative to vehicle control: 1.05
[6]; protein RAB7A, HeLa
  fold changes relative to vehicle control: 1.58
[7]; protein DCD, HeLa
  fold changes relative to vehicle control: 1.52
[8]; HeLa, protein FLVCR1
  fold changes relative to vehicle control: 0.95
[9]; protein DARS, HeLa
  fold changes relative to vehicle control: 1.15
[10]; protein MTAP, HeLa
  fold changes relative to vehicle control: 0.78
[11]; HeLa, protein DECR2
  fold changes relative to vehicle control: 1.05

## Nc1nc2cccc(-c3ccccc3)c2n1Cc1ccc(Cl)c(Cl)c1 [compound 3]
[1]; protein GMPS, HeLa
  fold changes relative to vehicle control: 0.96
[2]; protein EEF1A1, HeLa
  fold changes relative to vehicle control: 0.97
[3]; protein NF1, HeLa
  fold changes relative to vehicle control: 1.06
[4]; protein PSMC1, HeLa
  fold changes relative to vehicle control: 1
[5]; HeLa, protein DDB1
  fold changes relative to vehicle control: 0.87
[6]; protein RAB7A, HeLa
  fold changes relative to vehicle control: 1.12
[7]; protein DCD, HeLa
  fold changes relative to vehicle control: 1.26
[8]; HeLa, protein FLVCR1
  fold changes relative to vehicle control: 0.75
[9]; protein DARS, HeLa
  fold changes relative to vehicle control: 0.93
[10]; protein MTAP, HeLa
  fold changes relative to vehicle control: 0.99
[11]; HeLa, protein DECR2
  fold changes relative to vehicle control: 0.99

## NCCOCCOCC(=O)Nc1nc2ncc(CNc3ccc(C(=O)NC(CCC(=O)O)C(=O)O)cc3)nc2c(=O)[nH]1 (centres unmarked) [compound 6]
[1]; HeLa, protein GMPS
  fold changes relative to vehicle control: 1.24
[2]; HeLa, captured protein EEF1A1
  fold changes relative to vehicle control: 0.99
[3]; HeLa, protein NF1
  fold changes relative to vehicle control: 1.18
[4]; HeLa, protein PSMC1
  fold changes relative to vehicle control: 0.95
[5]; HeLa, protein DDB1
  fold changes relative to vehicle control: 0.99
[6]; protein RAB7A, HeLa
  fold changes relative to vehicle control: 1.31
[7]; protein DCD, HeLa
  fold changes relative to vehicle control: 0.86
[8]; protein FLVCR1, HeLa
  fold changes relative to vehicle control: 0.62
[9]; HeLa, protein DARS
  fold changes relative to vehicle control: 0.99
[10]; HeLa, captured protein MTAP
  fold changes relative to vehicle control: 0.95
[11]; HeLa, protein DECR2
  fold changes relative to vehicle control: 0.94

## NCCCNc1ccc(C(=O)NC(CCC(=O)O)C(=O)O)cc1 (centres unmarked) [compound 7]
[1]; HeLa, protein GMPS
  fold changes relative to vehicle control: 1.11
[2]; HeLa, captured protein EEF1A1
  fold changes relative to vehicle control: 0.93
[3]; HeLa, protein NF1
  fold changes relative to vehicle control: 1.11
[4]; HeLa, protein PSMC1
  fold changes relative to vehicle control: 0.85
[5]; HeLa, protein DDB1
  fold changes relative to vehicle control: 0.96
[6]; protein RAB7A, HeLa
  fold changes relative to vehicle control: 1.05
[7]; protein DCD, HeLa
  fold changes relative to vehicle control: 1.23
[8]; protein FLVCR1, HeLa
  fold changes relative to vehicle control: 0.57
[9]; HeLa, protein DARS
  fold changes relative to vehicle control: 1.06
[10]; HeLa, captured protein MTAP
  fold changes relative to vehicle control: 1.01
[11]; HeLa, protein DECR2
  fold changes relative to vehicle control: 0.93
